Tests used:
[1] = system: Hepatotoxicity;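 on HepSE Combined Scores: combined hepatic side effect score as listed in the training data of the Drug Induced Liver Injury Prediction System (DILIps)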;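 on HepSE cholelithiasis: hepatic side effect score for cholelithiasis, drawn from the DILIps training data for predicting drug-induced liver injury; call rule not given here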; on HepSE hepatic failure: call rule not given here;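 on HepSE hepatic necrosis: score of hepatic side effects for hepatic necrosis, drawn from the training data of DILIps, a prediction system for drug-induced liver injury; call rule not given here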;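 on HepSE jaundice: Jaundice-related hepatic side-effect score drawn from the training data of the DILIps (drug-induced liver injury prediction system); call rule not given here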; on HepSE liver disease: call rule not given here;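 on HepSE liver function tests abnormal: hepatic side effect score taken from the DILIps (drug-induced liver injury prediction system) training data, here covering abnormal liver function test findings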
[2] = system: Hepatotoxicity; remark: listed apart in the source;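 on HepSE Combined Scores: combined hepatic side effect score as listed in the training data of the Drug Induced Liver Injury Prediction System (DILIps)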;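 on HepSE cholelithiasis: hepatic side effect score for cholelithiasis, drawn from the DILIps training data for predicting drug-induced liver injury; call rule not given here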; on HepSE hepatic failure: call rule not given here;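 on HepSE hepatic necrosis: score of hepatic side effects for hepatic necrosis, drawn from the training data of DILIps, a prediction system for drug-induced liver injury; call rule not given here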;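 on HepSE jaundice: Jaundice-related hepatic side-effect score drawn from the training data of the DILIps (drug-induced liver injury prediction system); call rule not given here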; on HepSE liver disease: call rule not given here;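 on HepSE liver function tests abnormal: hepatic side effect score taken from the DILIps (drug-induced liver injury prediction system) training data, here covering abnormal liver function test findings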
[3] = system: Hepatotoxicity; remark: listed apart in the source;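 on HepSE Combined Scores: combined hepatic side effect score as listed in the training data of the Drug Induced Liver Injury Prediction System (DILIps)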;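 on HepSE cholelithiasis: hepatic side effect score for cholelithiasis, drawn from the DILIps training data for predicting drug-induced liver injury; call rule not given here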; on HepSE hepatic failure: call rule not given here;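 on HepSE hepatic necrosis: score of hepatic side effects for hepatic necrosis, drawn from the training data of DILIps, a prediction system for drug-induced liver injury; call rule not given here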;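 on HepSE jaundice: Jaundice-related hepatic side-effect score drawn from the training data of the DILIps (drug-induced liver injury prediction system); call rule not given here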; on HepSE liver disease: call rule not given here;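 on HepSE liver function tests abnormal: hepatic side effect score taken from the DILIps (drug-induced liver injury prediction system) training data, here covering abnormal liver function test findings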
[4] = system: Hepatotoxicity; remark: listed apart in the source;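 on HepSE Combined Scores: combined hepatic side effect score as listed in the training data of the Drug Induced Liver Injury Prediction System (DILIps)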;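 on HepSE cholelithiasis: hepatic side effect score for cholelithiasis, drawn from the DILIps training data for predicting drug-induced liver injury; call rule not given here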; on HepSE hepatic failure: call rule not given here;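 on HepSE hepatic necrosis: score of hepatic side effects for hepatic necrosis, drawn from the training data of DILIps, a prediction system for drug-induced liver injury; call rule not given here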;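 on HepSE jaundice: Jaundice-related hepatic side-effect score drawn from the training data of the DILIps (drug-induced liver injury prediction system); call rule not given here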; on HepSE liver disease: call rule not given here
[5] = system: Hepatotoxicity; remark: listed apart in the source; on HepSE hepatic failure: call rule not given here; on HepSE liver disease: call rule not given here
[6] = system: Hepatotoxicity; remark: listed apart in the source; on HepSE hepatic failure: call rule not given here; on HepSE liver disease: call rule not given here
[7] = system: Hepatotoxicity; remark: listed apart in the source
[8] = system: Hepatotoxicity; remark: listed apart in the source
[9] = system: Hepatotoxicity; remark: listed apart in the source
[10] = system: Hepatotoxicity; remark: listed apart in the source
[11] = system: Hepatotoxicity; remark: listed apart in the source
[12] = system: Hepatotoxicity; remark: listed apart in the source
[13] = system: Hepatotoxicity; remark: listed apart in the source
[14] = system: Hepatotoxicity; remark: listed apart in the source

SMILES | HepSE_hepatic necrosis [1] | HepSE_hepatic failure [2] | HepSE_cholelithiasis [3] | HepSE_Combined Scores [4] | HepSE_liver disease [5] | HepSE_jaundice [6] | HepSE_bilirubinemia [7] | HepSE_liver fatty [8] | HepSE_liver function tests abnormal [9] | HepSE_elevated liver function tests [10] | HepSE_hepatitis [11] | HepSE_cholecystitis [12] | HepSE_hepatomegaly [13] | HepSE_cirrhosis [14] | other results
CC(C)(N)Cc1ccccc1 [PHENTERMINE] | 0 | 0 | 0 | 0 | 0 | 0 | 0 | 0 | 0 | 0 | 0 | 0 | 0 | 0 | –
Cc1ccc(N(CC2=NCCN2)c2cccc(O)c2)cc1 [PHENTOLAMINE] | 0 | 0 | 0 | 0 | 0 | 0 | 0 | 0 | 0 | 0 | 0 | 0 | 0 | 0 | –
O=C1NC(=O)C(c2ccccc2)(c2ccccc2)N1 [PHENYTOIN] | – | – | – | – | – | – | – | – | – | – | – | – | – | – | HepSE_hepatic necrosis ([1]; Liver): 0; HepSE_hepatic failure ([2]; Liver): 0; HepSE_cholelithiasis ([3]; Liver): 0; HepSE_Combined Scores ([4]; Liver): 1; HepSE_liver disease ([5]; Liver): 0; HepSE_jaundice ([6]; Liver): 0; HepSE_bilirubinemia ([7]; Liver): 0; HepSE_liver fatty ([8]; Liver): 0; HepSE_liver function tests abnormal ([9]; Liver): 0; HepSE_elevated liver function tests ([10]; Liver): 0; HepSE_hepatitis ([11]; Liver): 1; HepSE_cholecystitis ([12]; Liver): 0; HepSE_hepatomegaly ([13]; Liver): 0; HepSE_cirrhosis ([14]; Liver): 0
O=P(O)(O)O [PHOSPHORIC ACID] | – | – | – | – | – | – | – | – | – | – | – | – | – | – | HepSE_hepatic necrosis ([1]; Liver): 0; HepSE_hepatic failure ([2]; Liver): 0; HepSE_cholelithiasis ([3]; Liver): 0; HepSE_Combined Scores ([4]; Liver): 0; HepSE_liver disease ([5]; Liver): 0; HepSE_jaundice ([6]; Liver): 0; HepSE_bilirubinemia ([7]; Liver): 0; HepSE_liver fatty ([8]; Liver): 0; HepSE_liver function tests abnormal ([9]; Liver): 0; HepSE_elevated liver function tests ([10]; Liver): 0; HepSE_hepatitis ([11]; Liver): 0; HepSE_cholecystitis ([12]; Liver): 0; HepSE_hepatomegaly ([13]; Liver): 0; HepSE_cirrhosis ([14]; Liver): 0
CC1=C(C/C=C(\C)CCC[C@H](C)CCC[C@H](C)CCCC(C)C)C(=O)c2ccccc2C1=O [PHYTONADIONE] | 0 | 0 | 0 | 1 | 0 | 0 | 1 | 0 | 0 | 0 | 0 | 0 | 0 | 0 | –
CC[C@@H]1C(=O)OC[C@@H]1Cc1cncn1C [PILOCARPINE] | 0 | 0 | 1 | 4 | 0 | 0 | 1 | 0 | 1 | 0 | 1 | 0 | 0 | 0 | –
CC[C@@H]1/C=C(\C)C[C@H](C)C[C@H](OC)[C@H]2O[C@@](O)(C(=O)C(=O)N3CCCC[C@H]3C(=O)O[C@H](/C(C)=C/[C@@H]3CC[C@H](Cl)[C@H](OC)C3)[C@H](C)[C@@H](O)CC1=O)[C@H](C)C[C@@H]2OC [PIMECROLIMUS] | 0 | 0 | 0 | 0 | 0 | 0 | 0 | 0 | 0 | 0 | 0 | 0 | 0 | 0 | –
O=c1[nH]c2ccccc2n1C1CCN(CCCC(c2ccc(F)cc2)c2ccc(F)cc2)CC1 [PIMOZIDE] | 0 | 0 | 0 | 0 | 0 | 0 | 0 | 0 | 0 | 0 | 0 | 0 | 0 | 0 | –
COc1cc(Br)c(C[N+]2(CCOCCC3CCC4CC3C4(C)C)CCOCC2)cc1OC.[Br-] (stereo not drawn) [PINAVERIUM BROMIDE] | – | – | – | – | – | – | – | – | – | – | – | – | – | – | HepSE_hepatic necrosis ([1]; Liver): 0; HepSE_hepatic failure ([2]; Liver): 0; HepSE_cholelithiasis ([3]; Liver): 0; HepSE_Combined Scores ([4]; Liver): 0; HepSE_liver disease ([5]; Liver): 0; HepSE_jaundice ([6]; Liver): 0; HepSE_bilirubinemia ([7]; Liver): 0; HepSE_liver fatty ([8]; Liver): 0; HepSE_liver function tests abnormal ([9]; Liver): 0; HepSE_elevated liver function tests ([10]; Liver): 0; HepSE_hepatitis ([11]; Liver): 0; HepSE_cholecystitis ([12]; Liver): 0; HepSE_hepatomegaly ([13]; Liver): 0; HepSE_cirrhosis ([14]; Liver): 0
CC(C)NCC(O)COc1cccc2[nH]ccc12 (stereo not drawn) [PINDOLOL] | 0 | 0 | 0 | 0 | 0 | 0 | 0 | 0 | 0 | 0 | 0 | 0 | 0 | 0 | –
CCc1ccc(CCOc2ccc(CC3SC(=O)NC3=O)cc2)nc1 (stereo not drawn) [PIOGLITAZONE] | 0 | 1 | 0 | 3 | 0 | 0 | 0 | 0 | 1 | 0 | 1 | 0 | 0 | 0 | –
CCN1CCN(C(=O)N[C@@H](C(=O)N[C@@H]2C(=O)N3[C@@H]2SC(C)(C)[C@@H]3C(=O)O)c2ccccc2)C(=O)C1=O [PIPERACILLIN] | 0 | 0 | 0 | 3 | 1 | 0 | 1 | 0 | 0 | 0 | 1 | 0 | 0 | 0 | –
CN(C)S(=O)(=O)c1ccc2c(c1)N(CCCN1CCC(CCO)CC1)c1ccccc1S2 [PIPOTIAZINE] | 0 | 0 | 0 | 1 | 0 | 1 | 0 | 0 | 0 | 0 | 0 | 0 | 0 | 0 | –
CC(C)(C)NCC(O)c1ccc(O)c(CO)n1 (stereo not drawn) [PIRBUTEROL] | 0 | 0 | 0 | 0 | 0 | 0 | 0 | 0 | 0 | 0 | 0 | 0 | 0 | 0 | –
CN1CCC(=C2c3ccccc3CCc3sccc32)CC1 [PIZOTYLINE] | 0 | 0 | 0 | 0 | 0 | 0 | 0 | 0 | 0 | 0 | 0 | 0 | 0 | 0 | –
COc1cc([C@@H]2c3cc4c(cc3[C@H](O)[C@H]3COC(=O)[C@H]23)OCO4)cc(OC)c1OC [PODOFILOX] | 0 | 0 | 0 | 0 | 0 | 0 | 0 | 0 | 0 | 0 | 0 | 0 | 0 | 0 | –
CN1C(CSCC(F)(F)F)Nc2cc(Cl)c(S(N)(=O)=O)cc2S1(=O)=O (stereo not drawn) [POLYTHIAZIDE] | 0 | 0 | 0 | 1 | 0 | 1 | 0 | 0 | 0 | 0 | 0 | 0 | 0 | 0 | –

— ChEMBL document CHEMBL1909294, “Translating clinical findings into knowledge in drug safety evaluation--drug induced liver injury prediction system (DILIps)” (PLoS Comput Biol, 2011)
